Molecules are shown by their SMILES.

The assay has as its target T1, phosphatase ABI1 via the co-regulator RCAR11/PYR1 (Arabidopsis thaliana, UniProt O49686+P49597).
T1 sequence (O49686 1-191): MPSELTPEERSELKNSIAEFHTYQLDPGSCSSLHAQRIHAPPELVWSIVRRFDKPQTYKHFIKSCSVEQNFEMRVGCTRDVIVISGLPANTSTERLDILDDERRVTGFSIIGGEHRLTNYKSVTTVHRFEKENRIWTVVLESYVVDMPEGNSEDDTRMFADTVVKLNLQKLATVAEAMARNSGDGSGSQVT
T1 sequence (P49597 1-434): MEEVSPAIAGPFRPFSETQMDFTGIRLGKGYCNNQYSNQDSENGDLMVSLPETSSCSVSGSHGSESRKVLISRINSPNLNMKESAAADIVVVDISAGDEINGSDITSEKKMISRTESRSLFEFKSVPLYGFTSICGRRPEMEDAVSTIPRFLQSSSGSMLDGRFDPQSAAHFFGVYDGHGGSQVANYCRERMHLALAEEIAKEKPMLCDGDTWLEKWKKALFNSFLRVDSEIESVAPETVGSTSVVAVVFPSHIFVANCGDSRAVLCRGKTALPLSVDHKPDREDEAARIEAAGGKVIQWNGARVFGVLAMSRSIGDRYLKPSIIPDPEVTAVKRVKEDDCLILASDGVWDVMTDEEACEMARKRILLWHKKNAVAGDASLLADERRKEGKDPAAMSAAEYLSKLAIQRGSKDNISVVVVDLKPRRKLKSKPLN
The assay can be described thus: In vitro inhibition of the phosphatase ABI1 via the co-regulator RCAR11/PYR1, MUP dephosphorylation. As to conditions: in a solution of DMSO and water; fluorescence at 460 nm. On the set-up: dose or concentration left out as unconfirmed. The class given is biochemical. The procedure, abridged: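 Arabidopsis ABI1 (0.15 μg/well) with RCAR11/PYR1 (0.30 μg/well) in Tris-HCl pH 8, NaCl, MnCl2, DTT, Tween20; MUP substrate, 20 min at 35 °C, fluorescence ex 340/em 460 nm. Compounds tested at 5 mM in DMSO/water, optionally pre-treated with porcine liver esterase; inhibition banded ≥90/70/50/30%.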

As for `COC(=O)CCN1C(=O)CCc2cc(NS(=O)(=O)Cc3ccc(F)cc3)ccc21` [A51-158], the ABI1 inhibition entry was “+++ (90%>inhibition≧70%)”.

Values taken from patent US20170027172A1, “USE OF SUBSTITUTE OXO TETRAHYDROQUINOLINE SULFONAMIDES OR SALTS THEREOF FOR RAISING STRESS TOLERANCE OF PLANTS” (BAYER CROPSCIENCE AKTIENGESELLSCHAFT, priority 2014, published 2017).
